test: gradient 5% acetonitrile 3 min, to 50% in 2 min, to 85% in 15 min, held 3 min, 100 µL/min; conditions: column: Zorbax Extend-C18 2.1 x 50 mm; eluents: water / acetonitrile, 0.1% formic acid
Procedure, shortened: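 A Zorbax Extend-C18 column (2.1 × 50 mm, 1.8 μm) run at 100 μL/min with water and acetonitrile, both containing 0.1% formic acid, separated mixtures of ~100 pure standards. The HPLC was coupled to a quadrupole time-of-flight mass spectrometer operated in positive and negative ionization mode, with dead and dwell volumes of 40 μL and 900 μL. Each retention time was taken from a computationally picked adduct peak that was then manually inspected.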

First: CCN1CCCn2cc(S(=O)(=O)NC3CCN(Cc4ccccc4)CC3)cc2C1=O
Second: Cc1cc(Cl)ccc1S(=O)(=O)N1CCN(C2CCN(Cc3ccccn3)C2=O)CC1 (centres undefined)
The RP-LC retention time of the first is lower: 597 s for the first, 608 s for the second.

Compared with `CCCC(NC(=O)c1ccc(F)cc1)C(=O)Nc1nc2ccccc2[nH]1` (centres undefined), `COC(=O)c1ncn2c1C(=O)N(Cc1ccc(F)cc1)C(C)(C(=O)NCc1ccccc1)C2` (centres undefined) is higher in RP-LC retention time: 690 s for the first, 714 s for the second.

First: Cc1ccc(CNS(=O)(=O)c2ccc3c(c2)C(=O)N(C)c2ncccc2O3)cc1C
Second: CN1C(=O)c2cccnc2Sc2cc(C(=O)NCc3cccc(Cl)c3)ccc21
The RP-LC retention time of the first is higher: 986 s for the first, 818 s for the second.

Going from `CCOC(=O)c1c(NCCC(C)C)c2cc(Cl)ccc2[nH]c1=O` to `CCc1cc(=O)n(CC(=O)Nc2ccc(F)c(Cl)c2)c(N2CCOCC2)n1`, the RP-LC retention time falls from 890 s to 828 s.

Going from `CNC(=O)N1CCCC1c1nc(C2CN(C(=O)c3cccn3C)C2)no1` (centres undefined) to `CC1CC(C)CN(C(=O)C2CCCN(C(=O)c3cc4sccc4n3C)C2)C1` (centres undefined), the RP-LC retention time rises from 629 s to 963 s.

Compared with `NC(=O)C1CCN(C(=O)c2cc(-c3ccccc3Cl)on2)CC1`, `COc1ccc(C)cc1NC(=O)N1CCC(c2cc(N)on2)CC1` is higher in RP-LC retention time: 674 s for the first, 720 s for the second.

First: CC(=O)NCc1csc(C2CCCN(C(=O)c3cc(F)ccc3F)C2)n1 (centres undefined)
Second: CC1CC(=O)N(CC(=O)Nc2ccc(F)cc2F)c2ccccc2S1 (centres undefined)
The RP-LC retention time of the first is lower: 667 s for the first, 914 s for the second.

Compared with `COc1ccc(NC(=O)c2c(OC)cc(=O)n3c2CCCC3)cc1OC`, `COc1ccc(CNC(=O)c2[nH]c3cc(C)sc3c2CN2CCCC2)cc1` is higher in RP-LC retention time: 628 s for the first, 679 s for the second.

Compared with `CC(C)CCN1C[C@@H]2C(=O)N(CCN3CCc4ccccc4C3)C(=O)[C@@H]2C1`, `CCCCn1nc2ccc(S(=O)(=O)N3CCSCC3)cn2c1=O` is higher in RP-LC retention time: 561 s for the first, 847 s for the second.

Going from `O=C(Cn1c(=O)c2cc(C3CC3)nn2c2ncccc21)NCc1ccccc1` to `Cc1ccc2nc(CN3CCN(C(=O)NCCc4ccccc4)CC3)oc2c1`, the RP-LC retention time falls from 727 s to 677 s.

Going from `COc1cccc(NC(=O)Nc2nccn(-c3ccc(F)c(F)c3)c2=O)c1` to `COc1ccc(-c2cn3c(C(=O)Nc4ccc5c(c4)OCCO5)csc3n2)cc1`, the RP-LC retention time falls from 927 s to 813 s.

Compared with `O=C(C1CCN(c2cnc3nccnc3c2)CC1)N1CCN(c2ccccc2)CC1`, `COc1ccccc1NC(=O)C1CCN(c2cnc(N3CCCCCC3)nc2)CC1` is higher in RP-LC retention time: 718 s for the first, 826 s for the second.

First: c1ccc(-c2cnn3cc(-c4ccc(OCCN5CCOCC5)cc4)cnc23)cc1
Second: c1ccc(-c2noc(-c3ccc(NCc4ccc5c(c4)OCO5)nc3)n2)cc1
The RP-LC retention time of the first is lower: 818 s for the first, 1110 s for the second.

First: CCCS(=O)(=O)N1CCC2(CC1)C(OC)CN2c1cccc(F)c1 (centres undefined)
Second: CC(C)NC(=O)N1CC(c2nc(-c3ccc(F)cc3)no2)C2(CCOCC2)C1 (centres undefined)
The RP-LC retention time of the first is higher: 1040 s for the first, 815 s for the second.

Going from `O=C(O)C(Cc1ccccc1)NS(=O)(=O)c1ccc(Cl)c(C(F)(F)F)c1` (centres undefined) to `O=C(O)c1cc(I)ccc1NC(=O)[C@H](Cc1ccccc1)NCc1ccccc1`, the RP-LC retention time falls from 887 s to 863 s.

Compared with `Cc1nc(-c2cc(S(=O)(=O)NCC(=O)NCc3ccccc3Cl)c(C)s2)no1`, `CCOc1ccc(-c2nc(CNC(=O)Nc3ccccc3OCC)c(C)o2)cc1` is higher in RP-LC retention time: 870 s for the first, 1080 s for the second.

Going from `COc1ccc(Nc2c(-c3ccc(N(C)C)cc3)nc3ncccn23)cc1` to `COc1ccc(-n2c(Cc3cccn3C)nnc2SCC(=O)NCC2CCCO2)cc1` (centres undefined), the RP-LC retention time falls from 684 s to 655 s.

Going from `CC1CCN(C(=O)c2cn(-c3cc(N4CCC(C)CC4)ncn3)cn2)CC1` to `COc1ccc2nc(C(=O)N3CCN(c4ccc(Cl)cc4)CC3)cn2n1`, the RP-LC retention time falls from 1030 s to 900 s.

Compared with `CSc1nnc(-c2nn(C)c3c2CN(C(=O)c2ccc(C)c(C)c2)CC3)n1C`, `Cc1cc(C)n(CCC(=O)N2CC(Oc3cccc(-c4nc(-c5ccccc5)no4)c3)C2)n1` is higher in RP-LC retention time: 770 s for the first, 1000 s for the second.

First: COc1nccnc1N1CCC(N(C)C(=O)Cc2c(C)noc2C)C1 (centres undefined)
Second: CN(CCc1noc(C2CN(Cc3cc(Cl)ccc3F)C2)n1)S(C)(=O)=O
The RP-LC retention time of the first is higher: 642 s for the first, 608 s for the second.

Going from `O=C(CN1CC(c2nc(-c3cccnc3)no2)C1)Nc1cc(C(F)(F)F)ccc1Cl` to `Cc1ccc(S(=O)(=O)Nc2cncc(C(=O)O)c2)cc1`, the RP-LC retention time falls from 634 s to 614 s.

Going from `Cc1cc(S(=O)(=O)C(CNC(=O)c2cccs2)c2ccco2)ccc1F` (centres undefined) to `O=C(NCCC1=CCCCC1)c1ccc2ccnc(N3CCN(c4ccccc4)CC3)c2c1`, the RP-LC retention time rises from 815 s to 958 s.

Reference: the METLIN SMRT retention time set (Domingo-Almenara et al. 2019)
